Laboratory results as given in patent US20220257710A1, “ANTI-INFECTION EFFECTS OF HNRNPA2B1 AND USE THEREOF” (INSTITUTE OF BASIC MEDICAL SCIENCES, CHINESE ACADEMY OF …, priority 2019, published 2022).

Test system: HSV-1 DNA
Assay: Immunoprecipitation of nuclear protein with anti-hnRNPA2B1 antibody and PCR detection of HSV-1 DNA
Assay type: binding, HSV-1 (strain F)
Conditions: mouse primary peritoneal macrophages, 2 hours after HSV-1 infection, PCR
Experimental: Obtaining the primary peritoneal macrophages of mice: C57BL/6 mice (6-8 weeks old, female, Shanghai Bikai Experimental Animal Co., Ltd.) were intraperitoneally injected with 2 ml of 3% mercaptoacetate (Sigma Aldrich) solution once. Three days later, the mice were sacrificed by cervical dislocation, and the abdominal cavity was washed with serum-free medium, sucked out and centrifuged to obtain cells.
The primary peritoneal macrophage cells were cultured in DMEM medium. After HSV-1 (strain F, ATCC) infection for 2 hours, nuclear protein was isolated and immunoprecipitated by anti-hnRNPA2B1 antibody (Santa Cruz) or control antibody (IgG, Santa Cruz). HSV-1 DNA was detected by PCR.

hnRNPA2B1: heterogeneous nuclear ribonucleoprotein A2B1; endogenous nuclear protein of mouse macrophages precipitated by anti-hnRNPA2B1 antibody
binding of hnRNPA2B1 to HSV-1 DNA: bound
